The test system of data set [1] is glial fibrillary acidic protein (GFAP) expression. Briefly: GFAP immunohistochemistry of optic nerve after optic nerve crush. The class given is in vivo, Sprague-Dawley rats. The following applies: 14 days after optic nerve crush, systemic tacrolimus treatment, compared to uncrushed controls. The procedure:
(§1) Optic nerve ischemia and PEUU-Tac matrix application. Animals were anesthetized by intraperitoneal injection of 45:10 mg/kg ketamine/xylazine cocktail. Once anaesthetized, the optic nerve was exposed by making a small incision and then creating a nearly bloodless plane through the conjunctiva by blunt dissection with #5 forceps. The surrounding muscle and connective tissue around the optic nerve were then gently separated until the optic nerve was exposed. Using a Yasagril aneurysm clip, the right optic nerve was clamped ˜2 mm behind the globe for 10 seconds (Sarikcioglu, Demir et al. 2007). After removing the clip, ophthalmic artery integrity was confirmed by visualization. For some animals, the optic nerve sheath was fenestrated at the injury site by making an 1-2 mm incision. For animals receiving PEUU-Tac, a 1×5 mm section cut from a 10 mg PEUU-Tac matrix was sutured around the injury site and then secured by suturing to the outer sheath. After each optic nerve procedure, the conjunctiva was sutured and antibiotic ointment (Gentamicin, Bausch & Lomb, Tampa, Fla.) was applied to the eye. In total, twenty-eight animals received acute optic nerve ischemia to the right optic nerve with or without a PEUU-Tac wrap.
Immunohistochemistry. […]

A short description of data set [2]: Tacrolimus concentration in blood, optic nerve ischemia model (Example 1). The class given is in vivo, Sprague-Dawley rats. The following applies: Sprague-Dawley, rat, whole blood, ip, systemic administration (i.p. 2.2 mg/kg/day). As for the experimental part: as §1, with “In total, twenty-eight animals received acute optic nerve ischemia to the right optic nerve with or without a PEUU-Tac wrap.” left out
Quantification of tacrolimus in blood by HPLC-tandem mass spectrometry. […] Monitored parent to product mass transitions for tacrolimus and ascomycin were 821.63→768.33 and 809→756 m/z, respectively.

Regarding `C=CC[C@@H]1/C=C(\C)C[C@H](C)C[C@H](OC)[C@H]2O[C@@](O)(C(=O)C(=O)N3CCCC[C@H]3C(=O)O[C@H](/C(C)=C/[C@@H]3CC[C@@H](O)[C@H](OC)C3)[C@H](C)[C@@H](O)CC1=O)[C@H](C)C[C@@H]2OC` [tacrolimus], the “GFAP expression in optic nerve” value in data set [1] is on record as “did not cause significant GFAP expression”. Besides, the concentration at 24 h in data set [2] (24 hour) was 7.05 ± 1.09 ng/mL. In data set [2] (14 days), this compound had a concentration at 14 days of 27.7 ± 3.53 ng/mL.

The record behind these values is patent publication US11529318B2, “Devices and methods for local delivery of tacrolimus” (UNIVERSITY OF PITTSBURGH—OF THE COMMONWEALTH SYSTEM OF …, priority 2017, dated 2022).
